Values after ≈ are worked out from the molar mass of the structure shown. Structures can show the parent of a compound that is named as a salt.
Columns and labels:
physchem = conditions: water
[1] = Dissolution rate of finely powdered substance under USP XXI conditions (apparatus 2) in artificial intestinal juice; conditions: pH 7

Compound	solubility (physchem) [mg/mL]	gelöst / in Lösung gegangen nach 2 Minuten [1] [%]	solubility (Solubility in water) [mg/mL]
COc1cccc([C@@]2(O)CCCC[C@@H]2CN(C)C)c1 (racemic) [I-Hydrochlorid, 1e-(m-Methoxyphenyl)-2e-dimethylaminomethyl-cyclohexan-1-(a)-ol]	298	> 97	–
O=C(O)Cc1ccccc1Nc1c(Cl)cccc1Cl [II-Natriumsalz, 2-(2ʹ,6ʹ-Dichloranilino)-phenylessigsäure]	–	–	~30 (≈ 101 mM)

Reference: EP0256258A2, “Salts of methoxyphenyl-dimethylaminomethyl-cyclohexanol, medicaments containing these and process for their preparation” (Grünenthal GmbH, priority 1986, dated 1988)
